{"source": "patent US5120322A", "about": "“Method and apparatus for treatment of fibrotic lesions” (Lathrotec, Inc., priority 1990, dated 1992)", "key": {"[1]": {"experiment": "Decomposition of BAPN in ointment, gels or solutions", "format": "physicochemical", "settings": "decomposition into ammonia, aminonitrile and CO2"}, "[2]": {"settings": "systemic administration, humans; cited from earlier work"}, "[3]": {"test_system": "skin and other surrounding tissues", "settings": "cited from earlier work"}, "collagen crosslinking": {"test_system": "collagen crosslinking", "settings": "cited from earlier work"}, "[4]": {"test_system": "scarred and blocked fallopian tubes", "experiment": "Example 2: fallopian tube stenosis-infertility", "format": "in vivo, human", "settings": "BAPN-coated silastic tube stint; four to six week healing phase", "source_text": "A patient having scarred and blocked fallopian tubes as a result of infection has incisions made in the scar tissue and a BAPN- coated silastic tube stint placed in the fallopian tube after one week and left in place during the healing phase. The stint is continuously maintained in contact with the fresh wound and is changed two or three times during the four to six week healing phase as the lathyrogenic agent leaches off the surface of the silastic stint and is incorporated into the newly healing scar. The newly formed scar takes the shape of the stint."}, "[5]": {"test_system": "full thickness burn of the hand", "experiment": "Example 5: burn scar-hand", "format": "in vivo, human", "settings": "jelly containing 5 mM/L BAPN-F; four to six weeks", "procedure": "A patient with a well healed full thickness burn of the hand has severe scarring of the fingers and hand in a claw-like form. The old scars are surgically released to create full mobility of the joints. The hand is placed in a \"dynamic splint.\" The splint contains rubber band fixation to a rigid frame allowing the patient to exercise their fingers through a full range of motion. During the healing phase and on a daily basis, a jelly containing 5 mM/L of the lathyrogenic agent BAPN-F is continuously applied to the surgically \"released\" areas. The patient continues to exercise and use the dynamic splint during the healing phase over the next four to six weeks. […] The dynamic splint is removed. Healing is complete and range of motion restored."}, "[6]": {"test_system": "full thickness dermal scar around the elbow", "experiment": "Example 1: burn scar-elbow", "format": "in vivo, human", "settings": "5.0 mM BAPN-F and/or 20-25 mM D-penicillamine jelly or BAPN-F gauze (40 mg/100 cm^2); four to six weeks", "procedure": "This restricts use. The hard scar is surgically \"released\" under general anesthesia by cutting in several places with or without a skin graft. The patient then has a lathyrogen applied and is placed in an elbow dynamic splint. This allows the elbow to be protected and at the same time to fully exercise the joint on a daily basis with or without the supervision of a physical therapist.\nA lathyrogen jelly with 5.0 mM of BAPN-F and/or 20-25 mM D-penicillamine or a BAPN-F ]impregnated gauze (40 mg/100 cm^2 of gauze) is continuously applied to the wound during its healing phase beginning 4-8 days after surgical treatment and continued for four to six weeks in combination with physical therapy."}, "urethral stenosis": {"test_system": "urethral stenosis", "experiment": "Example 7: urethra-infection", "format": "in vivo, human", "settings": "BAPN-F bonded silicone catheter; about six weeks", "source_text": "The old scar in the urethra is opened under direct surgical resection. Immediately afterward a silicone urethral bladder catheter is inserted. After one week, this catheter is exchanged for one with the lathyrogenic agent BAPN-F bonded onto its surface. The coated catheter is continuously maintained in place and changed ever week for about six weeks during the healing phase. During the healing phase new scar tissue is laid down. However, its strength is beneficially altered by the lathyrogen BAPN-F which inhibits the bonding of one protein scar fiber to the next protein scar fiber allowing the wound to be molded in the shape of the intraluminal stint (urinary bladder catheter)."}, "[7]": {"test_system": "transection of the membranous urethra", "experiment": "Example 8: urethra-trauma", "format": "in vivo, human males", "settings": "coated silicone catheter; about six weeks", "source_text": "Following fractured hips, 5-10% of human males suffer transection of the membranous urethra as it leaves the bladder. This transection requires primary anastamosis with catheter stinting, often resulting in severe scar formation and secondary bladder outlet obstruction. Balloon dilation (pressure balloon) to create new wound tissue may be performed or direct surgical resection removes the narrowed scar tissue. After one week, the original bladder catheter is exchanged for a silicone catheter coated with either BAPN-F or another lathyrogenic agent such as D-Penicillamine, which inhibits cross-linking (strong bonding) between scar collagen fibers. The coated catheter is continuously maintained in place and changed once a week for about six weeks during the healing phase."}, "[8]": {"test_system": "common bile duct stenosis", "experiment": "Example 11: common bile duct stenosis", "format": "in vivo, human", "settings": "BAPN-F coated silastic tube; six weeks", "source_text": "The scar is partially resected and after one week an original silastic stint is exchanged for an intraluminal silastic tube coated with BAPN-F with one arm of the tube protruding into the duodenum. The BAPN-F leaches off the silastic tube and is incorporated into the newly formed scar, which is soft because BAPN-F blocks cross-linking. The tube is continuously maintained in place and on a weekly basis the patient returns to the gastroenterology lab where, under direct manipulation, the tube is exchanged every week for six weeks. Once healing is complete the tube is removed and the new lumen of the common bile duct is preserved. The patient is no longer jaundiced and fluids from the liver can pass into the duodenum uninhibited."}, "[9]": {"test_system": "circumferential suture line scar of bladder and urethra", "experiment": "Example 4: urethra-prostatic cancer", "format": "in vivo, human", "settings": "silicone catheter coated with 5.0 mM BAPN-F; three weeks", "procedure": "A patient with prostatic cancer detected with sonography and a candidate for total prostatectomy has the prostate removed and the cuff of the bladder sewn to the most proximal remaining portion of the urethra. This circumferential suture line often progresses to heavy scarring preventing complete emptying of the bladder. The scar is cut away under anesthesia and direct resectoscope vision and immediately stinted with a silicone catheter coated with 5.0 mM BAPN-F. The catheter remains in continuous direct contact with the new wound tissue during healing. The BAPN-F leaches from the surface of the catheter, thereby inhibiting hardening of the healing scar during the next three weeks. The catheter is changed on a weekly basis to renew the BAPN-F supply."}, "tracheal injury": {"test_system": "tracheal injury", "experiment": "Example 10: trachea", "format": "in vivo, human", "settings": "silastic stint coated with 5.0 mM BAPN-F or D-Penicillamine; five or six weeks", "procedure": "The patient suffering tracheal injury either due to a tracheostomy on an emergency basis or secondary to an automobile accident has primary anastomosis of the trachea resulting in a severe scar and impairment of the airway. The scar is excised and an endotracheal silastic stint coated with 5.0 mM BAPN-F or D-Penicillamine is put in place after one week and continuously maintained and changed on a weekly basis for five or six weeks during the healing phase. The lathyrogen is incorporated in the newly formed and healing wound where it allows the newly formed scar to be soft, plastic-like and conform to the diameter of the endotracheal stint."}, "burns in the esophagus": {"test_system": "burns in the esophagus", "settings": "dogs, cited from earlier work"}, "[10]": {"test_system": "peritendinous, perineural adhesions", "experiment": "Clinical effect of topically applied BAPN-F gauze", "format": "in vivo", "settings": "20-40 mg BAPN-F per 100 cm^2 of gauze, placed wet over the lesions", "source_text": "In order to obtain long shelf life of BAPN medications the drug should be kept dry and out of contact with water. For this reason administration of BAPN as an ointment, in gels or solutions is rather impractical, as the medication has to be freshly prepared every 6-8 weeks. 6-8 weeks is the time of detection of the first decomposition product of BAPN into ammonia, aminonitrile and CO2. This invention can overcome the above problem by incorporating a solution with the known concentration of BAPN into the dressing material (gauze, collagen sponge) with a known surface area. The dressing material may be soaked with a known volume of BAPN solution, frozen and freeze dried to complete dryness."}, "[11]": {"settings": "rabbit, in vivo", "procedure": "This example illustrates the efficacy of collagen- resorcinol-glutaraldehyde polymer as a BAPN-F delivery system. One hundred parts of medical grade purity collagen, prepared by a known procedure, is mixed with three hundred parts of water and heated until collagen dissolves to form a viscous solution. […] One milliliter of this mixture per kilogram of rabbit body weight was injected under the skin, after quick mixing of the appropriate volume of the mixture with 1/10 of its volume of 3 percent glutaraldehyde in a 5 ml plastic syringe. […] The rate of the release of the BAPN-F from the polymer was studied by direct measuring of the amount of BAPN-F in the blood, collected from the ear vein of the rabbit at time intervals shown in Table 1.\nFor comparison, the same amount of BAPN-F was injected under the skin of control rabbits as water solution."}}, "note": "Counter-ions that a name gives are not always drawn. Like-named read-outs stand apart in the source and are kept apart here."}
{"molecule": "N#CCCN", "note": "[BAPN, Beta-aminopropionitrile]", "values": [{"measurement": "time of detection of the first decomposition product", "setting": "[1]", "result": "6-8 weeks"}, {"measurement": "systemic tolerance (therapeutic vs. toxic concentrations)", "setting": "[2]", "result": "therapeutic and toxic concentrations are so close that they cannot be systemically tolerated by humans"}, {"measurement": "penetration of skin and other surrounding tissues (thickness)", "setting": "[3]", "result": "a few millimeters in thickness"}, {"measurement": "inhibition of crosslinking", "setting": "collagen crosslinking", "result": "crosslinking can be inhibited"}, {"measurement": "opening of the fallopian tube", "setting": "[4]", "result": "the opening of the fallopian tube is preserved and egg and sperm transport can now cross the previously blocked fallopian tube"}]}
{"molecule": "N#CCCN", "note": "[BAPN-F, Beta-aminopropionitrile fumarate]", "values": [{"measurement": "range of hand motion", "setting": "[5]", "result": "full range of motion without further restriction of hand motion"}, {"measurement": "range of motion at the elbow", "setting": "[6]", "result": "the patient resumes full range of motion at the elbow"}, {"measurement": "urination after stint removal", "setting": "urethral stenosis", "result": "normal unobstructed urination can proceed"}, {"measurement": "opening after catheter removal", "setting": "[7]", "result": "a normal sized opening is present"}, {"measurement": "lumen of the common bile duct, jaundice", "setting": "[8]", "result": "the new lumen of the common bile duct is preserved. The patient is no longer jaundiced"}, {"measurement": "scarring of bladder-urethra suture line", "setting": "[9]", "result": "no new scarring takes place"}, {"measurement": "scarring and airway dynamics", "setting": "tracheal injury", "result": "no further scarring takes place, the medication and stint is discontinued and the patient returns to normal airway dynamics"}, {"measurement": "ingestion of food during treatment", "setting": "burns in the esophagus; esophageal burns", "result": "severe problems in the ingestion of food"}, {"measurement": "toxicity", "setting": "burns in the esophagus; systemically introduced", "result": "serious toxicity problems"}, {"measurement": "clinical effect on fibrotic adhesions", "setting": "[10]", "result": "evident clinical effect of a topically applied gauze-placed wet over the lesions, such as peritendinous, perineural adhesions with prevention or reduction of the incidence of fibrotic adhesions"}]}
{"molecule": "Water", "values": [{"measurement": "time to maximum in serum", "setting": "[11]", "result": "reaches a maximum in serum within two hours after injection"}, {"measurement": "Plasma Level (BAPN-F)", "setting": "[11]; 120 min", "result": 3.2}, {"measurement": "Plasma Level (BAPN-F)", "setting": "[11]; 240 min", "result": 2.9}, {"measurement": "Plasma Level (BAPN-F)", "setting": "[11]; 360 min", "result": 2.1}, {"measurement": "Plasma Level (BAPN-F)", "setting": "[11]; 600 min", "result": 1.0}, {"measurement": "Plasma Level (BAPN-F)", "setting": "[11]; 960 min", "result": 0.1}, {"measurement": "Plasma Level (BAPN-F)", "setting": "[11]; 2880 min", "result": 0}, {"measurement": "Plasma Level (BAPN-F)", "setting": "[11]; 4320 min", "result": 0}, {"measurement": "Plasma Level (BAPN-F)", "setting": "[11]; 5760 min", "result": 0}, {"measurement": "Plasma Level (BAPN-F)", "setting": "[11]; 10080 min", "result": 0}]}
{"molecule": "CC(C)(S)[C@@H](N)C(=O)O", "note": "[D-Penicillamine]", "values": [{"measurement": "systemic tolerance (therapeutic vs. toxic concentrations)", "setting": "[2]", "result": "therapeutic and toxic concentrations are so close that they cannot be systemically tolerated by humans"}, {"measurement": "range of motion at the elbow", "setting": "[6]", "result": "the patient resumes full range of motion at the elbow"}, {"measurement": "opening after catheter removal", "setting": "[7]", "result": "a normal sized opening is present"}, {"measurement": "scarring and airway dynamics", "setting": "tracheal injury", "result": "no further scarring takes place, the medication and stint is discontinued and the patient returns to normal airway dynamics"}, {"measurement": "inhibition of crosslinking", "setting": "collagen crosslinking", "result": "crosslinking can be inhibited"}]}
